# Results from BindingDB's records for doi:10.1016/s0960-894x(99)00197-3 (The R. W. Johnson Pharmaceutical Research Institute, 1999).
# Where a SMILES comes first, the peptide text is derived from it. [ ]: non-standard residue; d: D form. The star is where a group is joined. Cha = N[C@@H](CC1CCCCC1)C(=O)O; Nicotinoyl = O=C(c1cccnc1)*; 3Abz = Nc1cccc(C(=O)O)c1
# Assays:
# [1] = Activation of human platelet aggregation (gel-filtered platelets) induced by alpha thrombin
# [2] = Inhibition of [3H]S-(p-F-Phe)-Har-L-Har-KY-NH2 binding to Thrombin receptor 1 (PAR-1) on membranes from CHRF cells
Structure (SMILES),EC50 [1] [µM],EC50 [2] [µM]
N=C(N)NCCC[C@H](NC(=O)[C@H](Cc1ccccc1)NC(=O)c1ccc2nc[nH]c2c1)C(=O)N[C@@H](Cc1ccccc1)C(N)=O [1H-Benzoimidazole-5-carboxylic acid {(S)-1-[(S)-1-((S)-1-carbamoyl-2-phenyl-ethylcarbamoyl)-4-guanidino-butylcarbamoyl]-2-phenyl-ethyl}-amide],4.9,–
N=C(N)NCCC[C@H](NC(=O)[C@H](CC1CCCCC1)NC(=O)c1cccnc1N)C(=O)N[C@@H](Cc1ccccc1)C(N)=O [2-Amino-N-{(S)-1-[(S)-1-((S)-1-carbamoyl-2-phenyl-ethylcarbamoyl)-4-guanidino-butylcarbamoyl]-2-cyclohexyl-ethyl}-nicotinamide],–,8
N=C(N)NCCC[C@H](NC(=O)[C@H](CC1CCCCC1)NC(=O)c1cccc(N)c1)C(=O)N[C@@H](Cc1ccccc1)C(N)=O [3-Amino-N-{(S)-1-[(S)-1-((S)-1-carbamoyl-2-phenyl-ethylcarbamoyl)-4-guanidino-butylcarbamoyl]-2-cyclohexyl-ethyl}-benzamide] (H-[3Abz][Cha]RF-NH2),–,2.9
N=C(N)NCCC[C@H](NC(=O)[C@H](CC1CCCCC1)NC(=O)c1nccnc1N)C(=O)N[C@@H](Cc1ccccc1)C(N)=O [3-Amino-pyrazine-2-carboxylic acid {(S)-1-[(S)-1-((S)-1-carbamoyl-2-phenyl-ethylcarbamoyl)-4-guanidino-butylcarbamoyl]-2-cyclohexyl-ethyl}-amide],4.2,–
N=C(N)NCCC[C@H](NC(=O)[C@H](CC1CCCCC1)NC(=O)c1cc(=O)c2ccccc2o1)C(=O)N[C@@H](Cc1ccccc1)C(N)=O [4-Oxo-4H-chromene-2-carboxylic acid {(S)-1-[(S)-1-((S)-1-carbamoyl-2-phenyl-ethylcarbamoyl)-4-guanidino-butylcarbamoyl]-2-cyclohexyl-ethyl}-amide],0.51,–
"N=C(N)NCCC[C@H](NC(=O)[C@H](CC1CCCCC1)NC(=O)c1nnc(NC(=O)C=Cc2c[nH]c3ccccc23)[nH]1)C(=O)N[C@@H](Cc1ccccc1)C(N)=O [5-((E)-3-1H-Indol-3-yl-acryloylamino)-1H-[1,2,4]triazole-3-carboxylic acid {(S)-1-[(S)-1-((S)-1-carbamoyl-2-phenyl-ethylcarbamoyl)-4-guanidino-butylcarbamoyl]-2-cyclohexyl-ethyl}-amide]",–,14
"N=C(N)NCCC[C@H](NC(=O)[C@H](CC1CCCCC1)NC(=O)c1nnc(NC(=O)C=Cc2cccc3ccccc23)[nH]1)C(=O)N[C@@H](Cc1ccccc1)C(N)=O [5-((E)-3-Naphthalen-1-yl-acryloylamino)-1H-[1,2,4]triazole-3-carboxylic acid {(S)-1-[(S)-1-((S)-1-carbamoyl-2-phenyl-ethylcarbamoyl)-4-guanidino-butylcarbamoyl]-2-cyclohexyl-ethyl}-amide]",1,–
"N=C(N)NCCC[C@H](NC(=O)[C@H](CC1CCCCC1)NC(=O)c1nnc(NC(=O)C=Cc2cccs2)[nH]1)C(=O)N[C@@H](Cc1ccccc1)C(N)=O [5-((E)-3-Thiophen-2-yl-acryloylamino)-1H-[1,2,4]triazole-3-carboxylic acid {(S)-1-[(S)-1-((S)-1-carbamoyl-2-phenyl-ethylcarbamoyl)-4-guanidino-butylcarbamoyl]-2-cyclohexyl-ethyl}-amide]",–,2.9
"N=C(N)NCCC[C@H](NC(=O)[C@H](CC1CCCCC1)NC(=O)c1nnc(N)[nH]1)C(=O)N[C@H](C(N)=O)c1ccccc1 [5-Amino-1H-[1,2,4]triazole-3-carboxylic acid ((S)-1-{(S)-1-[((S)-carbamoyl-phenyl-methyl)-carbamoyl]-4-guanidino-butylcarbamoyl}-2-cyclohexyl-ethyl)-amide]",3.1,–
"N=C(N)NCCC[C@H](NC(=O)[C@H](CC1CCCCC1)NC(=O)c1nnc(N)[nH]1)C(=O)N[C@@H](Cc1cccs1)C(N)=O [5-Amino-1H-[1,2,4]triazole-3-carboxylic acid {(S)-1-[(S)-1-((S)-1-carbamoyl-2-thiophen-2-yl-ethylcarbamoyl)-4-guanidino-butylcarbamoyl]-2-cyclohexyl-ethyl}-amide]",–,10.5
"N=C(N)NCCC[C@H](NC(=O)[C@H](CC1CCCCC1)NC(=O)c1nnc(NC(=O)C=Cc2ccccc2Cl)[nH]1)C(=O)N[C@@H](Cc1ccccc1)C(N)=O [5-[(E)-3-(2-Chloro-phenyl)-acryloylamino]-1H-[1,2,4]triazole-3-carboxylic acid {(S)-1-[(S)-1-((S)-1-carbamoyl-2-phenyl-ethylcarbamoyl)-4-guanidino-butylcarbamoyl]-2-cyclohexyl-ethyl}-amide]",–,1.1
"N=C(N)NCCC[C@H](NC(=O)[C@H](CC1CCCCC1)NC(=O)c1nnc(NC(=O)C=Cc2ccc(Cl)cc2)[nH]1)C(=O)N[C@@H](Cc1ccccc1)C(N)=O [5-[(E)-3-(4-Chloro-phenyl)-acryloylamino]-1H-[1,2,4]triazole-3-carboxylic acid {(S)-1-[(S)-1-((S)-1-carbamoyl-2-phenyl-ethylcarbamoyl)-4-guanidino-butylcarbamoyl]-2-cyclohexyl-ethyl}-amide]",–,55
"COc1ccc(C=CC(=O)Nc2nnc(C(=O)N[C@@H](CC3CCCCC3)C(=O)N[C@@H](CCCNC(=N)N)C(=O)N[C@@H](Cc3ccccc3)C(N)=O)[nH]2)cc1 [5-[(E)-3-(4-Methoxy-phenyl)-acryloylamino]-1H-[1,2,4]triazole-3-carboxylic acid {(S)-1-[(S)-1-((S)-1-carbamoyl-2-phenyl-ethylcarbamoyl)-4-guanidino-butylcarbamoyl]-2-cyclohexyl-ethyl}-amide]",–,5.6
"N=C(N)NCCC[C@H](NC(=O)[C@H](CC1CCCCC1)NC(=O)c1nnc(NC(=O)C=Cc2ccc(C(F)(F)F)cc2)[nH]1)C(=O)N[C@@H](Cc1ccccc1)C(N)=O [5-[(E)-3-(4-Trifluoromethyl-phenyl)-acryloylamino]-1H-[1,2,4]triazole-3-carboxylic acid {(S)-1-[(S)-1-((S)-1-carbamoyl-2-phenyl-ethylcarbamoyl)-4-guanidino-butylcarbamoyl]-2-cyclohexyl-ethyl}-amide]",–,5
N=C(N)NCCC[C@H](NC(=O)[C@H](CC1CCCCC1)NC(=O)c1ccc(N)nc1)C(=O)N[C@@H](Cc1ccccc1)C(N)=O [6-Amino-N-{(S)-1-[(S)-1-((S)-1-carbamoyl-2-phenyl-ethylcarbamoyl)-4-guanidino-butylcarbamoyl]-2-cyclohexyl-ethyl}-nicotinamide],–,1.2
CC(C)C[C@H](NC(=O)[C@H](CC(C)C)NC(=O)[C@H](Cc1ccccc1)NC(=O)[C@@H](N)CO)C(=O)N[C@@H](CCCNC(=N)N)C(=O)N[C@@H](CC(N)=O)C(N)=O [(S)-2-[(S)-2-((S)-2-{(S)-2-[(S)-2-((S)-2-Amino-3-hydroxy-propionylamino)-3-phenyl-propionylamino]-4-methyl-pentanoylamino}-4-methyl-pentanoylamino)-5-guanidino-pentanoylamino]-succinamide],–,0.28
N=C(N)NCCC[C@H](NC(=O)[C@H](CC1CCCCC1)NC(=O)C=Cc1cccnc1)C(=O)N[C@@H](Cc1ccccc1)C(N)=O [(S)-2-[(S)-3-Cyclohexyl-2-((E)-3-pyridin-3-yl-acryloylamino)-propionylamino]-5-guanidino-pentanoic acid ((S)-1-carbamoyl-2-phenyl-ethyl)-amide],–,2.6
N=C(N)NCCC[C@H](NC(=O)[C@H](CC1CCCCC1)NC(=O)c1cc2ccccc2s1)C(=O)N[C@@H](Cc1ccccc1)C(N)=O [Benzo[b]thiophene-2-carboxylic acid {(S)-1-[(S)-1-((S)-1-carbamoyl-2-phenyl-ethylcarbamoyl)-4-guanidino-butylcarbamoyl]-2-cyclohexyl-ethyl}-amide],–,8.3
N=C(N)NCCC[C@H](NC(=O)[C@H](CC1CCCCC1)NC(=O)c1cc2ccccc2o1)C(=O)N[C@@H](Cc1ccccc1)C(N)=O [Benzofuran-2-carboxylic acid {(S)-1-[(S)-1-((S)-1-carbamoyl-2-phenyl-ethylcarbamoyl)-4-guanidino-butylcarbamoyl]-2-cyclohexyl-ethyl}-amide],–,12.5
N=C(N)NCCC[C@H](NC(=O)[C@H](CC1CCCCC1)NC(=O)c1ccc2c(c1)-c1ccccc1-2)C(=O)N[C@@H](Cc1ccccc1)C(N)=O [Biphenylene-2-carboxylic acid {(S)-1-[(S)-1-((S)-1-carbamoyl-2-phenyl-ethylcarbamoyl)-4-guanidino-butylcarbamoyl]-2-cyclohexyl-ethyl}-amide],–,1.2
N=C(N)NCCC[C@H](NC(=O)[C@H](CC1CCCCC1)NC(=O)c1ccc(Cl)nc1)C(=O)N[C@@H](Cc1ccccc1)C(N)=O [N-{(S)-1-[(S)-1-((S)-1-Carbamoyl-2-phenyl-ethylcarbamoyl)-4-guanidino-butylcarbamoyl]-2-cyclohexyl-ethyl}-6-chloro-nicotinamide],–,4.6
N=C(N)NCCC[C@H](NC(=O)[C@H](CC1CCCCC1)NC(=O)c1cccnc1)C(=O)N[C@@H](Cc1ccccc1)C(N)=O [N-{(S)-1-[(S)-1-((S)-1-Carbamoyl-2-phenyl-ethylcarbamoyl)-4-guanidino-butylcarbamoyl]-2-cyclohexyl-ethyl}-nicotinamide] (Nicotinoyl-[Cha]-Arg-Phe-NH2),–,2
N=C(N)NCCC[C@H](NC(=O)[C@H](CC1CCCCC1)NC(=O)c1ccccn1)C(=O)N[C@@H](Cc1ccccc1)C(N)=O [Pyridine-2-carboxylic acid {(S)-1-[(S)-1-((S)-1-carbamoyl-2-phenyl-ethylcarbamoyl)-4-guanidino-butylcarbamoyl]-2-cyclohexyl-ethyl}-amide],–,14
N=C(N)NCCC[C@H](NC(=O)[C@H](CC1CCCCC1)NC(=O)c1cnc2ccccc2n1)C(=O)N[C@@H](Cc1ccccc1)C(N)=O [Quinoxaline-2-carboxylic acid {(S)-1-[(S)-1-((S)-1-carbamoyl-2-phenyl-ethylcarbamoyl)-4-guanidino-butylcarbamoyl]-2-cyclohexyl-ethyl}-amide],–,1
"N=C(N)NCCC[C@H](NC(=O)[C@H](CC1CCCCC1)NC(=O)c1csnn1)C(=O)N[C@@H](Cc1ccccc1)C(N)=O [[1,2,3]Thiadiazole-4-carboxylic acid {(S)-1-[(S)-1-((S)-1-carbamoyl-2-phenyl-ethylcarbamoyl)-4-guanidino-butylcarbamoyl]-2-cyclohexyl-ethyl}-amide]",–,1.3
